# Results reported in ChEMBL document CHEMBL1201862, “PubChem BioAssay data set” (2004).
# Activity calls are given as the source filed them.
# How the values were obtained:
# [1] = Luminescence-based counterscreen assay for KLF5 inhibitors: dose response cell-based high throughput screening assay to identify cytotoxic compounds using the IEC-6 intestinal epithelial cell line. [Related pubchem assays: 1700 (Primary screen.), 1834 (Confirmation screen.), 1858 (Summary AID.), 1905 (Counterscreen.)]; format: functional
# [2] = biological target: T1, Calpain-2 catalytic subunit (Sus scrofa, UniProt P43367); assay: pig calpain II inhibitor potency, dose response, biochemical, fluorogenic peptide substrate (AID 1420); format: functional
# T1 sequence (P43367 whole entry): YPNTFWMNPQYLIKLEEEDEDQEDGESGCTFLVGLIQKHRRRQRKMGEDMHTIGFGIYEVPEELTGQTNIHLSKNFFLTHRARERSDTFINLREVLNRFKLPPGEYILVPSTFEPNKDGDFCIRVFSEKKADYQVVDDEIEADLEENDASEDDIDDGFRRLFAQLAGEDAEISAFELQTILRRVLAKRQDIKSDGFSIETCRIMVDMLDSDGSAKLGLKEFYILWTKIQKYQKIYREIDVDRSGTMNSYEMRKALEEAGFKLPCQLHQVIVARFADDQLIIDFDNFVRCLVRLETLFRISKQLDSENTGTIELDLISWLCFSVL
# [3] = test system: INS1; assay: beta cell apoptosis inhibitors, cytokine rescue, dose response, luminescence, retest (AID 449756); format: functional, cell-based; settings: Rattus norvegicus;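 further: cell death triggered by IL-1 beta plus TNF-alpha plus IFN-gamma mixture; protective hits raise ATP signal compared with cytokine alone wells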
# [4] = biological target: T2, Protein Tat (Human immunodeficiency virus type 1 group M subtype B (isolate HXB2)(HIV-1), UniProt P04608); format: functional;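 further: tat binding to TAR RNA read out by fluorescence polarization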
# T2 sequence (P04608 whole entry): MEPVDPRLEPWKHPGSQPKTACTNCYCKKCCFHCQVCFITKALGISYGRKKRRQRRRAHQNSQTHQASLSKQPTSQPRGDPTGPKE
# [5] = biological target: T3, Carboxy-terminal domain RNA polymerase II polypeptide A small phosphatase 1 (Homo sapiens, UniProt Q9GZU7); assay: inhibitors of CTDSP1, concentration-response testing, biochemical assay, absorbance-based, actives from ultra-high-throughput screening (AID 540297); format: functional
# T3 sequence (Q9GZU7 whole entry): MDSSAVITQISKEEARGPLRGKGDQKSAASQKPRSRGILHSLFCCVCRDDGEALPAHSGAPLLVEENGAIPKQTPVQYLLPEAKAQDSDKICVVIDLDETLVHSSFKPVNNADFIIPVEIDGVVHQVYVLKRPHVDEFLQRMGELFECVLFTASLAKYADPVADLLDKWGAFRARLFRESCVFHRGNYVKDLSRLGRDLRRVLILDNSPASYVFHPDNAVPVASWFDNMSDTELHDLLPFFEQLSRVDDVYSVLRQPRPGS
# [6] = biological target: T4, Estrogen receptor beta (Homo sapiens, UniProt Q92731);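 further: recombinant ER-beta bound to coactivator SRC1 peptide in presence of estradiol agonist; inhibitors block coactivator peptide binding and lower the FRET signal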
# [7] = biological target: T4, Estrogen receptor beta; assay: ERβ–SRC-3 coactivator interaction inhibitors, confirmation, orthogonal assay, biochemical, ELISA, streptavidin-HRP readout (AID 1060)
# [8] = biological target: T5, Estrogen receptor (Homo sapiens, UniProt P03372);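 further: potency for inhibiting coactivator peptide recruitment to the receptor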
# T5 sequence (P03372 whole entry): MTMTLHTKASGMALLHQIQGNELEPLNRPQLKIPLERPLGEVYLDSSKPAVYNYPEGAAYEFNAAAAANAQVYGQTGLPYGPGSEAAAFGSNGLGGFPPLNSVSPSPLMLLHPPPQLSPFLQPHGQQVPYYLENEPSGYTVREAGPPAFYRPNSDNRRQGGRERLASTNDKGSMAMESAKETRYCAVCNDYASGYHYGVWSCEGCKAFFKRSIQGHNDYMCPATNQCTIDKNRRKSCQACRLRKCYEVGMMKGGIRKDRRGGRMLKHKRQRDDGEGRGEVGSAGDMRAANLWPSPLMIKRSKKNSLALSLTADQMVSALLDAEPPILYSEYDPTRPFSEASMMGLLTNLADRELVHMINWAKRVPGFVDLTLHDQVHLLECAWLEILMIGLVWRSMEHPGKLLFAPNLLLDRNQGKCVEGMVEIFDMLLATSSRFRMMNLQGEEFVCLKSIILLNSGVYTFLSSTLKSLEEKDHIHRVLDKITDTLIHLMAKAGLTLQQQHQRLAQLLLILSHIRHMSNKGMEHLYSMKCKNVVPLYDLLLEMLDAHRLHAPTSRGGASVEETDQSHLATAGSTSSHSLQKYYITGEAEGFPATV
# [9] = biological target: T6, Acyl-homoserine lactone acylase PvdQ (Pseudomonas aeruginosa (strain LESB58), UniProt Q9I194); assay: P. aeruginosa PvdQ acylase inhibitors, dose response, biochemical, fluorescence, plate reader and imaging, cherry-picks (AID 493231)
# T6 sequence (Q9I194 whole entry): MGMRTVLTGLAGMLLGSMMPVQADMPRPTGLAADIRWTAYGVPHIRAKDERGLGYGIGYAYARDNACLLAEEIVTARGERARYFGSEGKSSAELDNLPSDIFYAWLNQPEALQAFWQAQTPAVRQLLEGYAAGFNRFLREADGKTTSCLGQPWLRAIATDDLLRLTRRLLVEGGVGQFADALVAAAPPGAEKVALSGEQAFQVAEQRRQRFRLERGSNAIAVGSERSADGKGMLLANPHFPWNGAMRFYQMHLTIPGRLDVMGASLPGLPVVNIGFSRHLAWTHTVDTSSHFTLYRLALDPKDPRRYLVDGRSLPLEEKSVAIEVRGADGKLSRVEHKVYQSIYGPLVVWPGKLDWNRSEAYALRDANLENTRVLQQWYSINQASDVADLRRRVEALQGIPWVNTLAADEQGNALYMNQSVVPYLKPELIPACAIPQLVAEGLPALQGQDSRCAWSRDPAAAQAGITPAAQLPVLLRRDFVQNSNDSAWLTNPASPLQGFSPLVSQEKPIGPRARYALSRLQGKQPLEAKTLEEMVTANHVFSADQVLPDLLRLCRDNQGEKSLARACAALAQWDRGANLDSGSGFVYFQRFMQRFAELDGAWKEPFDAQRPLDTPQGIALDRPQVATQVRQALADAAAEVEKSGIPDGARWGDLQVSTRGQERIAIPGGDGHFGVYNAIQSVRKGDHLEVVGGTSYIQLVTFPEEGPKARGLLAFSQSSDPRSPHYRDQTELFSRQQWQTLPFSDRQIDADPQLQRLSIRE
# T4 sequence (Q92731 whole entry): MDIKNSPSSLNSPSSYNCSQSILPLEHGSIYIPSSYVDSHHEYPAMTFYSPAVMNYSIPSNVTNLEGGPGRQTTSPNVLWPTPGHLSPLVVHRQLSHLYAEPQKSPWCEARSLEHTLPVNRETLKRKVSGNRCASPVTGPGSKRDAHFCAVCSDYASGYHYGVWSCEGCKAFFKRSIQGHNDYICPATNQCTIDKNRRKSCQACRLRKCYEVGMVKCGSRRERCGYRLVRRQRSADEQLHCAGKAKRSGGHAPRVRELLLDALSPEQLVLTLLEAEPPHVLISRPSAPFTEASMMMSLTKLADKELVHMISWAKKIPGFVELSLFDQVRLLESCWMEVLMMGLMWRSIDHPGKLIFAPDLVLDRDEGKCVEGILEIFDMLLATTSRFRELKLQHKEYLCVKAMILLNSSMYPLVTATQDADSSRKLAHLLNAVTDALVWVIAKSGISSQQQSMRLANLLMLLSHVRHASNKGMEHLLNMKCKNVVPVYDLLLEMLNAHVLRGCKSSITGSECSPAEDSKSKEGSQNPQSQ
SMILES,IC50 [6],IC50 [7],IC50 [8],AC50 [9],other results
O=C(Nc1cccnc1)c1cccs1,–,–,–,–,IC50 [1]: 38.4 µM (not active); IC50 [2]: > 50 µM (not active); AC50 [3]: 6.6 µM (active)
CCOC(=O)C1=C(O)/C(=C\c2ccc(CNC(=O)C(=O)Nc3ccccc3)o2)N=C1C,< 1.56 µM (active),1.95 µM (not active),5.73 µM (active),–,IC50 [4]: 5.9 µM (inconclusive); IC50 [5]: 8.55 µM (active)
CCC(=O)c1ccc(OC(=O)c2cccs2)cc1,–,–,–,> 100 µM (inactive),–
O=S(=O)(NCc1csc(-c2cccnc2)n1)c1ccc(Cl)s1,11.8 µM (active),99.4 µM (not active),13.6 µM (active),–,–
COc1ccc(N2CCN(C(=O)c3ccc(Br)o3)CC2)cc1,–,–,–,7.33 µM (active),–
COC(=O)c1ccc(OC(=O)c2cccs2)cc1,–,–,–,7.15 µM (active),–
CC(=N)/C(C#N)=C(/O)CSc1nnc(COc2ccccc2Cl)o1,8.99 µM (active),5.64 µM (not active),37.2 µM (not active),–,IC50 [2]: < 0.4 µM (not active)
Cn1cccc1C(C#N)c1ccccc1C#N (stereo not given),–,–,–,7.71 µM (active),–
CN(C)c1ccc(/C=N/Nc2cccc(C(=O)O)c2)cc1,–,–,–,–,IC50 [1]: > 39.8 µM (not active)
